Test results reported in patent US12440493B2, “Combination therapy for treating cancer comprising substituted piperazines” (Eli Lilly and Company, priority 2020, dated 2025).
“And” between values parts separate entries of the source, which are not always exact repeats. Equal values may be shown once.

What was measured:
[1] = tested on: IDH1(R132H) primary human AML cells; assay: AML cell differentiation in blood (flow cytometry, % hCD33+hCD11b+ of hCD45+ cells), human AML PDx models in NSG mice; type: in vivo; conditions: for AML cell differentiation (% hCD33 + hCD11b+ (of hCD45+ cells)): 1 mg/kg Azacitidine, (QDx5, rest2)X2, 14 days off, each value one animal, 1 mg/kg
Procedure: (§1) Compounds and Formulation. For in vivo studies, each test article is prepared at an appropriate concentration with vehicle. […] Compound A is prepared fresh at the appropriate concentrations with vehicle every 7 days and stored at 4° C. between doses. […] Cytarabine is prepared fresh weekly by dilution with sterile saline from stock solution of Cytarabine (injection 20 mg/mL, (Pfizer injectables')). Azacitidine (Sigma, Lot #MKBR7212) is formulated in sterile water and is prepared fresh daily immediately before dosing. In vivo human AML PDx models. […] Two models are used in the studies: […] As needed, splenocytes from tumor-bearing mice are used to propagate and expand the models, as described. Each test article is prepared as described above at an appropriate concentration with vehicle to give animals the doses tested in this study at a dosing volume of 10 μL/gram body weight. Mice receiving Compound A (PO, QD) are treated at the indicated doses for the duration of the study. The combination agents are dosed as follows: […] Treated mice are assessed in comparison to vehicle treated and naïve (non-tumor bearing) control mice. Body weight is recorded twice per week. […] AML PDx model propagation. […] Spleens are processed and splenocytes isolated as described below. Two hundred μL per subject of the splenocyte prep is injected IV (intravenous, tail vein) into recipient NSG mice. […] Once engraftment is confirmed, the mice are monitored biweekly until ready to be put on study. […] Submandibular blood is collected. Spleen/Splenocyte Processing and Prep. After excision, a spleen is weighed, and […] is placed in a standard sterile 15 mL polypropylene conical tube containing PBS, and placed on ice. […] The spleen is placed in ice cold sterile PBS in a 15 mL collection tube. The spleen is removed from the collection tube and placed in a 100 micron 50 mL conical tube cell strainer (BD Falcon #352360). The spleen is processed by gentle rubbing of the spleen tissue against the surface of the cell strainer with the end of a 5 mL syringe plunger in a circular motion. The surface of the strainer is rinsed with 10 mL room temperature sterile DPBS (HyClone SH30028) 3 times during the process. […] The cell pellet is collected by centrifugation (300×g) and washed three times with 30 mL sterile DPBS. The cells are counted and resuspended in DPBS at the desired implant concentration. Bone Marrow Collection. […] Flow cytometry analysis of human white cells. Submandibular blood samples from in vivo studies are collected. Fluor-conjugated antibody stains are added according to the manufacturer's instructions (anti-human CD33-PE (clone WM53, BD Cat #555450), anti-human CD14-APC (clone MφpP9, BD Cat #340436), anti-human CD15-V450 (clone HI98, BD Cat #561584), anti-human CD117-BV421 (clone YB5.B8, BD Cat #562434), anti-human […]7 (clone ICRF44, BD Cat #557754), anti-human […]7 (clone HI30, BD Cat #557748), and anti-human CD3-FITC (clone SK7, BD Cat #340542)). The samples are incubated for 30 minutes at room temperature, protected from light. After the incubation, 1.5 mL 1×BD Lyse/Fix (37° C., (BD #558049)) is added to each sample and incubated for 12 minutes at room temperature. The tubes are centrifuged at 300×g for 7 minutes. BD Lyse/Fix solution is aspirated and the cell pellet washed with stain/wash buffer 3 times (1 wash step consisted of: pellet resuspended in 3 mL stain/wash buffer, centrifuged at 300×g, aspirated wash). Fixed cells are then resuspended in 300 to 400 μL stain/wash buffer. Samples are analyzed on a Becton Dickinson FACSVerse Flow cytometer (Cat #651155 Serial #Z6511550447) using standard flow cytometry principles and techniques. Samples are analyzed on the same day as they are stained and fixed. Population gating and data analysis of percent population are performed in the FACSuite software on the FACSVerse cytometer. Percent population values from the data analysis are plotted in Graphpad Prism or in JMP13. […]

[2] = tested on: IDH1(R132H) primary human AML cells; assay: Bone marrow AML clearance (flow cytometry), human AML PDx models in NSG mice; type: in vivo
Procedure: as §1

[3] = tested on: IDH1(R132H) primary human AML cells; assay: AML clearance in peripheral blood (flow cytometry, % hCD33+hCD45+ of total white cells), human AML PDx models in NSG mice; type: in vivo; conditions: for AML clearance (% hCD33 + hCD45+ (of total white cells)): 1 mg/kg Azacitidine, (QDx5, rest2)X2, 14 days off, each value one animal, 1 mg/kg
Procedure: as §1

2-HG production = assay: Plasma 2-HG inhibition (LC-MS metabolite analysis in plasma of AML PDx model); type: in vivo, human
[4] = 1 mg/kg Azacitidine, (QD × 5, rest 2)x2, 14 days off, each line one animal
[5] = 1 mg/kg Azacitidine, IP, (QDx5, rest 2)x2 14 days off, each line one animal

Structure (SMILES): Nc1ncn([C@@H]2O[C@H](CO)[C@@H](O)[C@H]2O)c(=O)n1 [Azacitidine, reference compound]
- AML cell differentiation (% hCD33 + hCD11b+ (of hCD45+ cells)) ([1]; Treatment day 2): 10.07% and 14.27% and 13.08% and 12.37% and 5.55% and 9.38% and 9.55%
- AML cell differentiation (% hCD33 + hCD11b+ (of hCD45+ cells)) ([1]; Treatment day 15): 12.12% and 16.08% and 11.64% and 18.36% and 13.75% and 11.72% and 18.15%
- AML cell differentiation (% hCD33 + hCD11b+ (of hCD45+ cells)) ([1]; Treatment day 28): 21.14% and 21.62% and 19.07% and 20.9% and 16.95% and 20.64% and 21.18%
- AML cell differentiation (% hCD33 + hCD11b+ (of hCD45+ cells)) ([1]; Treatment day 43): 10.64% and 9.94% and 11.58% and 6.98% and 6.67% and 12.03% and 10.48%
- AML cell differentiation (% hCD33 + hCD11b+ (of hCD45+ cells)) ([1]; Treatment day 58): 14.45% and 9.99% and 10.78% and 11.33% and 11.72% and 13.55%
- AML cell differentiation (% hCD33 + hCD11b+ (of hCD45+ cells)) ([1]; Treatment day 77): 10.12% and 10.78% and 8.78% and 6.76% and 10.92% and 11.76%
- AML cell differentiation (% hCD33 + hCD11b+ (of hCD45+ cells)) ([1]; Treatment day 98): 10.31% and 14.59% and 17.5% and 8.29% and 16.64%
- AML cell differentiation (% hCD33 + hCD11b+ (of hCD45+ cells)) ([1]; Treatment day −19): 1.53% and 0% (2×) and 2.59% and 0.27% and 2.72% and 1.16%
- % AML cell differentiation (treatment group value) ([1]; day 43, group G: azacitidine (1 mg/kg), vehicle 15%): 10%
- Bone Marrow AML Clearance: % hCD33 + hCD45+ (% of white cells) [2, 4]: 49.81% and 60.61% and 72.4% and 43.12%
- Bone Marrow AML Clearance: % hCD45+ (% of white cells) [2, 4]: 49.85% and 61% and 72.52% and 43.15%
- % human AML cells in bone marrow (of white cells; lower = more clearance) ([2]; group G: azacitidine (1 mg/kg), vehicle 94%): 55%
- AML clearance (% hCD33 + hCD45+ (of total white cells)) ([3]; Treatment day 2): 23.43% and 20.98% and 19.8% and 15.03% and 22.26% and 10.88% and 16.63%
- AML clearance (% hCD33 + hCD45+ (of total white cells)) ([3]; Treatment day 15): 33.19% and 44.55% and 30.95% and 35.67% and 30.39% and 28.23% and 30.75%
- AML clearance (% hCD33 + hCD45+ (of total white cells)) ([3]; Treatment day 28): 13.99% and 12.05% and 15.33% and 16.77% and 13.73% and 22.64% and 22.81%
- AML clearance (% hCD33 + hCD45+ (of total white cells)) ([3]; Treatment day 43): 32.23% and 23.27% and 18.57% and 27.48% and 11.38% and 25.34% and 20.44%
- AML clearance (% hCD33 + hCD45+ (of total white cells)) ([3]; Treatment day 58): 11.92% and 32.12% and 11.16% and 7.63% and 9.47% and 13.4%
- AML clearance (% hCD33 + hCD45+ (of total white cells)) ([3]; Treatment day 77): 12.91% and 26.37% and 20.18% and 12.58% and 15.11% and 11.64%
- AML clearance (% hCD33 + hCD45+ (of total white cells)) ([3]; Treatment day 98): 62.54% and 70.18% and 65.61% and 37.53% and 38.23%
- AML clearance (% hCD33 + hCD45+ (of total white cells)) ([3]; Treatment day −19): 7.65% and 4.33% and 3.14% and 6.28% and 3.24% and 2.46% and 2.87%
- % peripheral blood AML cells (treatment group value) ([3]; day 43, group G: azacitidine (1 mg/kg), vehicle 71%): 22%
- % Inhibition of 2-HG (plasma) (2-HG production; [5]): 32.923% and 22.691% and 56.872% and 51.81% and 75.405% and 73.207% and 49.201%
- Naive Subtracted 2-HG (plasma) (2-HG production; [5]): 4.603 µM and 5.305 µM and 2.959 µM and 3.307 µM and 1.688 µM and 1.838 µM and 3.486 µM
- Plasma 2-HG (2-HG production; [5]): 7.539 µM and 8.241 µM and 5.896 µM and 6.243 µM and 4.624 µM and 4.775 µM and 6.422 µM
- % plasma 2-HG (treatment group value) (2-HG production; group G: azacitidine (1 mg/kg), vehicle 100%): 48%
